Assay results reported in publication PMC7531004, “Discovery of gramicidin A analogues with altered activities by multidimensional screening of a one-bead-one-compound library” (Nature Communications, 2020).
Where a SMILES comes first, the peptide text is derived from it. [ ]: non-standard residue; d: D form. The star is where a group is joined. NHCH2CH2OH = OCCN*; For = O=C*

Tests used:
[1] = H+/Na+ transport assay of bead-derived peptides (one-point); assay type: biochemical; parameters: key: relative activity; mean of two control wells = 1.00; conditions: bead-derived peptide solution, EYPC/EYPG LUVs;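 further: relative to parent gramicidin A activity set to 1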
Method in brief: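 Values are normalized fluorescence, with Triton X-100 defining 100% and untreated LUVs 0%, and the two control wells averaging 1.00. Vesicles carried 1.0 mM pyranine and included egg yolk phosphatidylglycerol. Peptides were incubated with them 30 min at room temperature.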

[2] = cell viability/%
Method in brief: (§1)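 Peptide stocks diluted 250× in growth medium; P388 cells 1 × 10^4 cells/mL final; 37 °C, 5% CO2, 92 h. WST-1 + 1-methoxy PMS, 4 h, A415. Output: % viability.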

[3] = tested on: Streptococcus pyogenes SSI-9; test: Antibacterial activity assay of bead-derived peptides (three concentrations); assay type: cell-based; parameters: key: +++: inhibition by the 640-fold diluted peptide solution; ++: inhibition by the 160-fold diluted solution; +: inhibition by the 40-fold diluted solution; -: no inhibition; conditions: S. pyogenes, bead-derived peptide solution, three concentrations
Method in brief: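 First, each peptide stock was diluted 4- and 16-fold in DMSO; next, the three solutions were mixed with S. pyogenes SSI-9 suspension (2 × 10^5 CFU) in cation-adjusted Mueller Hinton Broth plus 5% laked horse blood; finally, plates stood 18 h at 37 °C before checking for grown-cell precipitation.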

[4] = tested on: P388 mouse leukemia cells; conditions: 92 h
Method in brief: as §1

In the case of `CC(C)C[C@@H](NC(=O)[C@H](C)NC(=O)CNC(=O)[C@@H](NC=O)C(C)C)C(=O)N[C@@H](C)C(=O)N[C@H](CC(C)C)C(=O)N[C@H](C(=O)N[C@@H](C(=O)N[C@@H](Cc1c[nH]c2ccccc12)C(=O)N[C@H](CC(C)C)C(=O)N[C@@H](Cc1c[nH]c2ccccc12)C(=O)N[C@@H](C(=O)N[C@@H](Cc1c[nH]c2ccccc12)C(=O)N[C@@H](C(=O)N[C@@H](Cc1c[nH]c2ccccc12)C(=O)NCCO)C(C)C)[C@H](C)O)C(C)C)C(C)C` [compound 65] (For-VGA[dL]A[dL]V[dV]W[dL]W[dT]W[dV]W-NHCH2CH2OH), the “H+/Na+ transport activity normalized against the value of 1 (1.00)” value (“H+/Na+ transport activity normalized” for short) [1] is reported as 1.08, the viability [2] is reported as 100% and the antibacterial activity [3] is reported as “+”.
With `CC(C)C[C@@H](NC(=O)[C@H](C)NC(=O)CNC(=O)[C@@H](NC=O)C(C)C)C(=O)N[C@@H](C)C(=O)N[C@@H](C(=O)N[C@H](C(=O)N[C@H](CC(C)C)C(=O)N[C@@H](Cc1c[nH]c2ccccc12)C(=O)N[C@H](CC(C)C)C(=O)N[C@@H](Cc1c[nH]c2ccccc12)C(=O)N[C@@H](C(=O)N[C@@H](Cc1c[nH]c2ccccc12)C(=O)N[C@H](CC(C)C)C(=O)N[C@@H](Cc1c[nH]c2ccccc12)C(=O)NCCO)C(C)C)C(C)C)C(C)C` [compound 13252] (For-VGA[dL]A[dV]V[dL]W[dL]W[dV]W[dL]W-NHCH2CH2OH) the “H+/Na+ transport activity normalized” value [1] was 1.14, the cell viability/% [4] was 2.6% and the antibacterial activity [3] was “-”.
For `CC(C)C[C@@H](NC(=O)[C@H](C)NC(=O)CNC(=O)[C@@H](NC=O)C(C)C)C(=O)N[C@@H](C)C(=O)N[C@@H](C(=O)N[C@H](C(=O)N[C@@H](C(=O)N[C@@H](Cc1c[nH]c2ccccc12)C(=O)N[C@H](CC(C)C)C(=O)N[C@@H](Cc1c[nH]c2ccccc12)C(=O)N[C@H](CC(C)C)C(=O)N[C@@H](Cc1c[nH]c2ccccc12)C(=O)N[C@@H](C(=O)N[C@@H](Cc1c[nH]c2ccccc12)C(=O)NCCO)C(C)C)[C@H](C)O)C(C)C)C(C)C` [compound 13268] (For-VGA[dL]A[dV]V[dT]W[dL]W[dL]W[dV]W-NHCH2CH2OH), the “H+/Na+ transport activity normalized” value [1] was 1.03, the cell viability/% [4] was 100.0% and the antibacterial activity [3] was “+”.
For `CC(C)C[C@@H](NC(=O)[C@H](C)NC(=O)CNC(=O)[C@@H](NC=O)C(C)C)C(=O)N[C@@H](C)C(=O)N[C@H](CC(C)C)C(=O)N[C@H](C(=O)N[C@@H](C(=O)N[C@@H](Cc1c[nH]c2ccccc12)C(=O)N[C@H](CC(C)C)C(=O)N[C@@H](Cc1c[nH]c2ccccc12)C(=O)N[C@@H](C(=O)N[C@@H](Cc1c[nH]c2ccccc12)C(=O)N[C@@H](C(=O)N[C@@H](Cc1c[nH]c2ccccc12)C(=O)NCCO)C(C)C)[C@H](C)O)C(C)C)C(C)C` [compound 13273] (For-VGA[dL]A[dL]V[dV]W[dL]W[dT]W[dV]W-NHCH2CH2OH), the “H+/Na+ transport activity normalized” value [1] was 1.05, the cell viability/% [4] was 100.0% and the antibacterial activity [3] was “-”.
For `CNC(=O)C[C@@H](NC(=O)[C@H](Cc1c[nH]c2ccccc12)NC(=O)[C@@H](CC(C)C)NC(=O)[C@H](Cc1c[nH]c2ccccc12)NC(=O)[C@H](NC(=O)[C@H](Cc1c[nH]c2ccccc12)NC(=O)[C@H](NC(=O)[C@@H](NC(=O)[C@@H](CC(C)C)NC(=O)[C@H](C)NC(=O)[C@H](NC(=O)[C@H](C)NC(=O)CNC(=O)[C@@H](NC=O)C(C)C)C(C)C)C(C)C)C(C)C)C(C)C)C(=O)N[C@@H](Cc1c[nH]c2ccccc12)C(=O)NCCO` [compound 13317] (For-VGA[dV]A[dL]V[dV]W[dV]W[dL]W[dD](NHMe)W-NHCH2CH2OH), the “H+/Na+ transport activity normalized” value [1] was 1.04, the cell viability/% [4] was 100.0% and the antibacterial activity [3] was “-”.
